Where two headings read alike, the source gives them in different places.
Biological target: T1, wild-type mouse TMEM16A (Mus musculus, UniProt Q8BHY3)
T1 construct: expressed in transfected cells; host or cells: HEK293T
T1 sequence (Q8BHY3 1-960): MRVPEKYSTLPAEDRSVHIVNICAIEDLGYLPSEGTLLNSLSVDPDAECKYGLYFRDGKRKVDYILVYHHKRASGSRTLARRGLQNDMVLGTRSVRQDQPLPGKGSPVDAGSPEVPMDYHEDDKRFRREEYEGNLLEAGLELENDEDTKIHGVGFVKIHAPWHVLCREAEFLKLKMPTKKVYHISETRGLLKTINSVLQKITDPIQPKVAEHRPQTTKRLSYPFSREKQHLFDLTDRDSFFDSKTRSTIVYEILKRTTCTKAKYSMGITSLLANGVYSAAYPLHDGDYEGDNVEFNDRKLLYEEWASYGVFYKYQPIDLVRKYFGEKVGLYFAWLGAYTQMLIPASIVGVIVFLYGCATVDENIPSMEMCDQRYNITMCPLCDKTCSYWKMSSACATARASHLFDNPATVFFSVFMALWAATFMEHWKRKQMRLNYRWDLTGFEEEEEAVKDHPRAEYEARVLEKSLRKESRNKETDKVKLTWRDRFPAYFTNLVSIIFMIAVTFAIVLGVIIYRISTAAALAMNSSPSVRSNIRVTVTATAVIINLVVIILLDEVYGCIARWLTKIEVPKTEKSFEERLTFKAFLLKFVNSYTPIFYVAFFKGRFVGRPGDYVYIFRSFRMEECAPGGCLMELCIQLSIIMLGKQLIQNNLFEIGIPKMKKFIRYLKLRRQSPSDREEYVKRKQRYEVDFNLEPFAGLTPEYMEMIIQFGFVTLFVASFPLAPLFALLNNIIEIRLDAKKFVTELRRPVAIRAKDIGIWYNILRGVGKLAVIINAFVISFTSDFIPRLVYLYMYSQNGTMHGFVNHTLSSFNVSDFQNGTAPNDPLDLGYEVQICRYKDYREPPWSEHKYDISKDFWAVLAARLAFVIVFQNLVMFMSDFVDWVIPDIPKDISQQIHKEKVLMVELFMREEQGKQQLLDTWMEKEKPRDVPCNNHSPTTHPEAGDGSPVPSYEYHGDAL
Assay: Inside-out patch recording of 1PBC block, wild-type TMEM16A
Format: cell-based
Description: HEK293T cells (ATCC CRL-1573) were maintained in Dulbecco’s modified Eagle’s medium (DMEM; Sigma-Aldrich) supplemented with 10 U ml^−1 penicillin, 0.1 mg ml^−1 streptomycin (Sigma-Aldrich), 2 mM L-glutamine (Sigma-Aldrich), and 10% FBS (Sigma-Aldrich) in a humidified atmosphere containing 5% CO2 at 37 °C. HEK293S GnTI^− cells (ATCC CRL-3022) were maintained in HyClone HyCell TransFx-H medium (GE Healthcare) supplemented with 10 U ml^−1 penicillin, 0.1 mg ml^−1 streptomycin, 4 mM L-glutamine, 0.15% poloxamer 188 (Sigma-Aldrich), and 1% FBS in an atmosphere containing 5% CO2 at 185 rpm at 37 °C. The ac splice variant of mouse TMEM16A (UniProt ID: Q8BHY3), mouse TMEM16B (UniProt ID: Q8CFW1), or mouse TMEM16F (UniProt ID: Q6P9J9) bearing a 3C cleavage site, a Venus YFP, a Myc tag, and a Streptavidin-binding peptide (SBP) downstream of the open reading frame in a modified pcDNA3.1 vector (Invitrogen) were used as described previously[21],[31]. Mutations were introduced using a modified QuikChange method[58] and were verified by sequencing.
HEK293T cells were transfected with 3–4 μg DNA per 6 cm Petri dish using the calcium phosphate co-precipitation method and were used within 24–96 h after transfection. Recordings were performed on inside-out patches excised from HEK293T cells expressing the construct of interest. Patch pipettes were pulled from borosilicate glass capillaries (O.D. 1.5 mm, I.D. 0.86 mm, Sutter Instrument) and were fire-polished with a microforge (Narishige) before use. Pipette resistance was typically 3–8 MΩ when filled with the recording solutions detailed below. Seal resistance was typically 4 GΩ or higher. Voltage-clamp recordings were made using Axopatch 200B, Digidata 1550, and Clampex 10.7 (Molecular Devices). Analog signals were filtered with the in-built 4-pole Bessel filter at 10 kHz and were digitized at 20 kHz. Solution exchange was achieved using a gravity-fed system through a theta glass pipette mounted on an ultra-fast piezo-driven stepper (Siskiyou). […] All recordings were performed at 20 °C.
A symmetrical ionic condition was used throughout. Stock solution with Ca^2+-EGTA contained 150 mM NaCl, 5.99 mM Ca(OH)2, 5 mM EGTA, and 10 mM HEPES at pH 7.40. Stock solution with EGTA contained 150 mM NaCl, 5 mM EGTA, and 10 mM HEPES at pH 7.40. Free Ca^2+ concentrations were adjusted by mixing the stock solutions at the required ratios calculated using the WEBMAXC program (http://web.stanford.edu/~cpatton/webmaxcS.htm). Patch pipettes were filled with the stock solution with Ca^2+-EGTA, which has a free Ca^2+ concentration of 1 mM. 1PBC (ChemBridge) stock was reconstituted in anhydrous DMSO (Sigma-Aldrich) at 100 mM and stored at −20 °C. Working solutions with 1PBC were prepared by serial dilution. Unless otherwise stated, experiments were performed at a saturating Ca^2+ concentration as shown in Supplementary Table 1 and the primary data were corrected for current rundown as described previously[21],[25].
Concentration-response relations, obtained from the ratio of the I-V plots before and after the application of the blocker, were fitted to the Hill equation,1 I/Imax=1/1+IC50/[blocker]^h where I/Imax is the normalized current responses, IC50 defines the concentration at which inhibition is at its half-maximum, and h is the Hill coefficient.

- Steady-state current (normalized) (10 µM 1PBC, -60 mV, 2 µM Ca2+): -0.2628
- remaining activity at 10 µM (10 µM 1PBC, -60 mV, 2 µM Ca2+, read-out: I/Imax): 45.4%
- Steady-state current (normalized) (10 µM 1PBC, -80 mV, 2 µM Ca2+): -0.388
- remaining activity at 10 µM (10 µM 1PBC, -80 mV, 2 µM Ca2+, read-out: I/Imax): 50.6%
- Steady-state current (normalized) (10 µM 1PBC, -100 mV, 2 µM Ca2+): -0.5211
- remaining activity at 10 µM (10 µM 1PBC, -100 mV, 2 µM Ca2+, read-out: I/Imax): 54.8%
- Steady-state current (normalized) (10 µM 1PBC, -120 mV, 2 µM Ca2+): -0.6616
- remaining activity at 10 µM (10 µM 1PBC, -120 mV, 2 µM Ca2+, read-out: I/Imax): 59.1%
- Steady-state current (normalized) (10 µM 1PBC, -140 mV, 2 µM Ca2+): -0.7984
- remaining activity at 10 µM (10 µM 1PBC, -140 mV, 2 µM Ca2+, read-out: I/Imax): 62.2%
- Steady-state current (normalized) (30 µM 1PBC, 0 mV, 2 µM Ca2+): 0.0002811
- remaining activity at 30 µM (30 µM 1PBC, 0 mV, 2 µM Ca2+, read-out: I/Imax): 11.5%
- I/Imax scaled to open probability (30 µM 1PBC, 400 nM Ca2+, 80 mV): 0.04177
- I/Imax scaled to open probability (30 µM 1PBC, 800 nM Ca2+, 80 mV): 0.04061
- I/Imax scaled to open probability (30 µM 1PBC, 2 µM Ca2+, 80 mV): 0.05533
- Steady-state current (normalized) (30 µM 1PBC, 20 mV, 2 µM Ca2+): 0.01874
- remaining activity at 30 µM (30 µM 1PBC, 20 mV, 2 µM Ca2+, read-out: I/Imax): 9.63%
- Steady-state current (normalized) (30 µM 1PBC, 40 mV, 2 µM Ca2+): 0.03065
- remaining activity at 30 µM (30 µM 1PBC, 40 mV, 2 µM Ca2+, read-out: I/Imax): 8.13%
- Steady-state current (normalized) (30 µM 1PBC, 60 mV, 2 µM Ca2+): 0.03882
- remaining activity at 30 µM (30 µM 1PBC, 60 mV, 2 µM Ca2+, read-out: I/Imax): 7.03%
- Steady-state current (normalized) (30 µM 1PBC, 80 mV, 2 µM Ca2+): 0.04513
- remaining activity at 30 µM (30 µM 1PBC, 80 mV, 2 µM Ca2+, read-out: I/Imax): 6.38%
- Steady-state current (normalized) (30 µM 1PBC, 100 mV, 2 µM Ca2+): 0.0498
- remaining activity at 30 µM (30 µM 1PBC, 100 mV, 2 µM Ca2+, read-out: I/Imax): 5.86%
- Steady-state current (normalized) (30 µM 1PBC, 120 mV, 2 µM Ca2+): 0.05715
- remaining activity at 30 µM (30 µM 1PBC, 120 mV, 2 µM Ca2+, read-out: I/Imax): 5.87%
- Steady-state current (normalized) (30 µM 1PBC, 140 mV, 2 µM Ca2+): 0.0661
- remaining activity at 30 µM (30 µM 1PBC, 140 mV, 2 µM Ca2+, read-out: I/Imax): 6.08%
- Steady-state current (normalized) (30 µM 1PBC, -20 mV, 2 µM Ca2+): -0.02579
- remaining activity at 30 µM (30 µM 1PBC, -20 mV, 2 µM Ca2+, read-out: I/Imax): 13.4%
- Steady-state current (normalized) (30 µM 1PBC, -40 mV, 2 µM Ca2+): -0.06545
- remaining activity at 30 µM (30 µM 1PBC, -40 mV, 2 µM Ca2+, read-out: I/Imax): 16.9%
- Steady-state current (normalized) (30 µM 1PBC, -60 mV, 2 µM Ca2+): -0.1171
- remaining activity at 30 µM (30 µM 1PBC, -60 mV, 2 µM Ca2+, read-out: I/Imax): 20.2%
- Steady-state current (normalized) (30 µM 1PBC, -80 mV, 2 µM Ca2+): -0.1843
- remaining activity at 30 µM (30 µM 1PBC, -80 mV, 2 µM Ca2+, read-out: I/Imax): 24%
- Steady-state current (normalized) (30 µM 1PBC, -100 mV, 2 µM Ca2+): -0.264
- remaining activity at 30 µM (30 µM 1PBC, -100 mV, 2 µM Ca2+, read-out: I/Imax): 27.8%
- Steady-state current (normalized) (30 µM 1PBC, -120 mV, 2 µM Ca2+): -0.3545
- remaining activity at 30 µM (30 µM 1PBC, -120 mV, 2 µM Ca2+, read-out: I/Imax): 31.7%
- Steady-state current (normalized) (30 µM 1PBC, -140 mV, 2 µM Ca2+): -0.4476
- remaining activity at 30 µM (30 µM 1PBC, -140 mV, 2 µM Ca2+, read-out: I/Imax): 34.8%
- Steady-state current (normalized) (100 µM 1PBC, 0 mV, 2 µM Ca2+): 0.0001085
- remaining activity at 100 µM (100 µM 1PBC, 0 mV, 2 µM Ca2+, read-out: I/Imax): 4.44%
- I/Imax scaled to open probability (100 µM 1PBC, 400 nM Ca2+, 80 mV): 0.01539
- I/Imax scaled to open probability (100 µM 1PBC, 800 nM Ca2+, 80 mV): 0.01603
SMILES: N#Cc1c(C(F)(F)F)cc(O)n2c1nc1ccccc12 [1PBC]
